Values of other authors, collected in patent US11179338B1, “Powder for oral suspension containing tadalafil” (AUSON PHARMACEUTICALS INC., priority 2021, dated 2021).

CN1CC(=O)N2[C@H](c3ccc4c(c3)OCO4)c3[nH]c4ccccc4c3C[C@@H]2C1=O [Tadalafil, pyrazino [1′,2′:1,6]pyrido[3,4-b]indole-1,4-dione, 6-(1,3-benzodioxol-5-yl) 2,3,6,7,12,12a-hexahydro-2-methyl-, (6R,12aR)-]
solubility in water: insoluble
